Measured values taken from Sander's compilation of Henry's law constants (doi:10.1213/00000539-199904000-00035).

Test: Henry solubility constant Hcp at 310 K (mol/(m3 Pa))
Settings: reference: Eger et al. (1999)

| SMILES | Henry solubility constant Hcp at 310 K |
| --- | --- |
| CC(O)(C(F)(F)F)C(F)(F)F [1,1,1,3,3,3-hexafluoro-2-methyl-2-propanol] | 0.018 |
| OC(C(F)(F)F)C(F)(F)F [1,1,1,3,3,3-hexafluoro-2-propanol] | 0.1 |
| CC(O)C(F)(F)F (configuration not stated) [1,1,1-trifluoro-2-propanol] | 0.13 |
| CCCCCCO [1-hexanol] | 0.35 |
| CCCCCCCCO [1-octanol] | 0.27 |
| OCCC(F)(F)C(F)(F)C(F)(F)C(F)(F)C(F)(F)C(F)(F)F [1H,1H,2H,2H-perfluoro-1-octanol] | 0.00094 |
| OCC(F)(F)F [2,2,2-trifluoroethanol] | 0.43 |
| OCC(F)(F)C(F)(F)F [2,2,3,3,3-pentafluoro-1-propanol] | 0.069 |
| OCC(F)(F)C(F)(F)C(F)(F)C(F)(F)C(F)(F)F [2,2,3,3,4,4,5,5,6,6,6-undecafluoro-1-hexanol] | 0.0017 |
| OCC(F)(F)C(F)(F)C(F)(F)C(F)(F)C(F)(F)C(F)(F)F [2,2,3,3,4,4,5,5,6,6,7,7,7-tridecafluoro-1-heptanol] | 0.0006 |
| OCC(F)(F)C(F)(F)C(F)(F)C(F)(F)C(F)(F)C(F)(F)C(F)(F)F [2,2,3,3,4,4,5,5,6,6,7,7,8,8,8-pentadecafluoro-1-octanol] | 0.00023 |
| OCC(F)(F)C(F)(F)C(F)(F)C(F)(F)C(F)(F)C(F)F [2,2,3,3,4,4,5,5,6,6,7,7-dodecafluoro-1-heptanol] | 0.064 |
| OCC(F)(F)C(F)(F)C(F)(F)C(F)F [2,2,3,3,4,4,5,5-octafluoro-1-pentanol] | 0.25 |
| OCC(F)(F)C(F)F [2,2,3,3-tetrafluoro-1-propanol] | 0.75 |
| OCC(F)(F)C(F)C(F)(F)F (configuration not stated) [2,2,3,4,4,4-hexafluoro-1-butanol] | 0.32 |
| CC(O)C(F)(F)C(F)(F)C(F)(F)F (configuration not stated) [3,3,4,4,5,5,5-heptafluoro-2-pentanol] | 0.009 |
| CCO [ethanol] | 1 |
